Read-outs that look alike come from different tables or passages of the source.
Columns and labels:
[1] = tested on: lipopolysaccharide (LPS)-induced ocular inflammation model; assay: LPS-induced ocular inflammation model, aqueous humor cells and protein, survival; type: in vivo; details: for % Efficacy, Cell % Inhibition / % Efficacy, Protein % Inhibition: aqueous humor
Experimental: Male Lewis rats, weighing about 250 to 270 grams, were purchased from Charles River and used for all studies. Lipopolysaccharide (LPS) was made fresh in sterile saline (1 mg/ml), kept on ice, and administered by footpad injection at a total dose of 100 μg (100 μl) per animal. Twenty-four hours later, at the time of maximal inflammation in this model, the rats were euthanized by CO2 inhalation. Aqueous humor was collected and analyzed for protein concentration and cell counts.
For the calculation of the percentage of cell inhibition, the number of cells in treatment group were divided by the average number of cells in vehicle group times 100. For the calculation of the percentage of protein inhibition, the amount protein in treatment group was divided by the average protein in the vehicle group times 100.
Aqueous humor was collected from both eyes by anterior chamber puncture, performed under an operating microscope, using a 30-gauge needle and 25 μl Hamilton syringe (Catalog number 1702). aqueous humor from both eyes was pooled and kept on ice until further analysis.
Protein determination was carried out using a standard Bradford method. Cell counting was done by using either a hemocytometer or an automated cell counter (BioRad TC10).

human PDE4B2 = human PDE4B2 (Homo sapiens, UniProt Q07343); assay: Phosphodiesterase assay, recombinant human PDE4B2 ([3H]cAMP hydrolysis); type: biochemical
Chain of human PDE4B2 (Q07343 1-564 isoform Q07343-2): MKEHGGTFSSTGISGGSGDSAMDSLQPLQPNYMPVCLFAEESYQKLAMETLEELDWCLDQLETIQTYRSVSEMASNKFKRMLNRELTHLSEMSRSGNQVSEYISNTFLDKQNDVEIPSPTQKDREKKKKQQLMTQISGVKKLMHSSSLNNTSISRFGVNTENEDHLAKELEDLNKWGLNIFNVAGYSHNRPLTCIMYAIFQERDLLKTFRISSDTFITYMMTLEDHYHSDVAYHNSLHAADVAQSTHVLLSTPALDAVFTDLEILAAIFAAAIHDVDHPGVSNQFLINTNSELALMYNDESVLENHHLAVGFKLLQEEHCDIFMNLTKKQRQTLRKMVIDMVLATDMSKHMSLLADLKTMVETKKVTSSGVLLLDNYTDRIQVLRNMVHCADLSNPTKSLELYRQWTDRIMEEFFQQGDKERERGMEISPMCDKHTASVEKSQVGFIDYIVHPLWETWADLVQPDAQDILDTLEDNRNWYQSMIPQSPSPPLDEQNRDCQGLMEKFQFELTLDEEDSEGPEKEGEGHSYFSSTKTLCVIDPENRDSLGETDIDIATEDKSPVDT
Experimental: A phosphodiesterase assay was performed using recombinant human PDE expressed in a baculoviral system.
The assay consisted of a two-step procedure. Tritium-labeled cyclic AMP was hydrolyzed to 5′-AMP by phosphodiesterase. The 5′-AMP was then further hydrolyzed to adenosine by nucleotidase in snake venom. An anion-exchange resin bound all charged nucleotides and left [^3H]adenosine as the only labeled compound to be counted by liquid scintillation.
All compounds were tested at a 10 μM starting concentration with a 1 in 3, 8 point IC50. […] The IC50 of each compound and the standard inhibitor (Rolipram) was determined. The standard inhibitor value was compared to historical assay data to ensure that it was within an acceptable range.

[2] = tested on: Oxazolone (OXA) dermatitis in SKH1-E hairless mice; assay: Oxazolone-induced dermatitis model, topical or oral treatment, SCORAD and resolved lesions; type: in vivo; details: for day of statistically significant improvement in SCORAD clinical scores: topical, vs. vehicle
Experimental: Female SKH1-E hairless mice (Charles River) weighing approximately 25 g at 2-3 months of age were used in the following study. For model induction, the mice were sensitized on Day −7 (minus seven) by topical application of 50 μl of 5% Oxazolone (OXA) solubilized in ethanol on the hind flank. Dermatitis was elicited by repeated topical challenges with 50 μl of 0.1% Oxazolone every other day until the end of the study.
For administration of the test compounds, the test compounds were solubilized in a 70% ethanol/30% DMSO vehicle solution and kept at 4° C. Beginning on Day 0, the test compounds were administered twice daily (AM/PM) by topical application (50 μl volume) for 12 days. Betamethasone (0.12%) was used as a positive control and dosed once daily in the AM. Test article dosing and topical challenges were separated by at least 4 hours and all compounds were masked to investigators.
For clinical assessment, the degree of dermatitis was graded on a SCORAD (scoring atopic dermatitis) based scoring system of 0-3 (with 0=no symptoms, 1=Mild, 2=Moderate, 3=Severe) prior to challenge by a masked investigator.
(§1) For tissue collection, on the day of necropsy, animals were euthanized at 2 hours post final dose via CO2 inhalation with death verified by cervical dislocation. Whole blood was collected via cardiac puncture (˜250 μl) in EDTA/K^+ treated tubes for plasma analysis of drug concentrations. A rectangular strip of skin from the left side of treatment back area was collected for hematoxylin-eosin (H&E) stain. Prior to placing tissue in 10% formalin, the skin thickness was measured using a calibrated caliper (mm). Three 8 mm tissue punches were then collected from the right side of the treatment area and stored at −80° C. for cytokine protein (LUMINEX) or gene expression assays.

PMBC TNF = details: data from literature; read-out: PMBC TNF Inhib. IC50; cited from earlier work
[3] = Plasma drug concentration after topical dosing in the dermatitis model (LC-MS/MS); type: in vivo
Experimental: as §1
The whole-blood samples collected in Example 2 were analyzed for drug concentrations. In particular, plasma samples were extracted by protein precipitation with acetonitrile and analyzed for drug concentrations by the bioanalytical laboratory using liquid chromatography tandem mass spectrometry (LC-MS/MS). Propranolol (200 ng/mL) was used as an internal standard for the extraction procedure. Working standards were prepared by series dilution (0.5 ng/mL) into acetonitrile from a stock solution of 10 ug/mL. All samples were analyzed using the API 5000 LC-MS/MS system in 0.1% formic acid in water.

Oral bio-availability = details: in vivo
plaque psoriasis = assay: Example of treatment of plaque psoriasis (patient case); type: in vivo, human; details: topical up to three times a day; after 1 to 4 months
Description: A person presents with erythematous plaques covered with thick, silvery, shiny scales on the extensor surfaces of their elbows and knees. After a clinical evaluation, the patient is diagnosed with plaque psoriasis. The patient is prescribed a pharmaceutical composition containing an effective amount of the compound of Formula I with instructions to apply the composition topically to the plaques up to three times a day.

dry eye disease = assay: Example of treatment of dry eye disease (patient case); type: in vivo, human; details: eye drops once a day; after about 1 to 2 months
Description: A person presents with a history of having gritty, itchy and burning sensations in the both eyes which was previously generally diagnose as dry eye and has been treated with artificial tear drops applied topically to the eye as needed. The patient complains that the artificial tear solutions require too many applications per day. Medical evaluation of the patient results in the identification of the patient's dry eye disease as being dry eye disease where tear production is presumed to be suppressed due to ocular inflammation associated with the dry eye disease. The patient is prescribed eye drops containing an effective amount of the compound of Formula I with instructions to apply medication once a day.

rosacea = assay: Example of treatment of rosacea (patient case); type: in vivo, human; details: topical one or twice a day; after about two days
Description: A person presents with visible facial erythema and edema with telangiectases and visible papules and pustules resembling acne. […] Upon clinical examination, the patient is diagnosed with rosacea in its inflammatory phase. The patient is prescribed a topical composition comprising an effective amount of the compound of Formula I and instructed to apply the composition to the affected areas one or twice a day.

[4] = tested on: pruritus, atopic dermatitis; assay: Example of treatment of pruritus / atopic dermatitis (patient case); type: in vivo, human; details: topical cream once a day
Description: A person presents with a history of chronic relapsing atopic dermatitis (eczema), with severe itching, beginning. Their rash is characterized by red, itchy eruptions on cheeks and legs. Patient's parents stated that during a flare-up child is irritable at home and severe scratching disrupts sleep at night. Patient also feels very self-conscious of rash and is socially withdrawn at school during a flare-up. History of treatment have included lukewarm soaking baths and the use of over the counter emollients and creams. Topical calcineurin inhibitors were reported to exacerbate pruritus. The patient is prescribed a topical cream of the compound of Formula I with instructions to apply medication once day.

[5] = human PDE4B2, read-out: Enzymatic IC50
[6] = 0.01-0.5 mg/kg subcutaneously, dose dependent

CCCNC(=O)COc1c(C(=O)Cc2c(Cl)cncc2Cl)ccc(OC)c1OC
% Survival ([1]; systemic dose 1.0 mg/kg): 100% | % Efficacy, Cell % Inhibition ([1]; systemic dose 1.0 mg/kg): 67% | % Efficacy, Protein % Inhibition ([1]; systemic dose 1.0 mg/kg): 29%

N#Cc1ccc(Oc2ccc3c(c2)COB3O)cc1 [AN-2728]
IC50 (human PDE4B2): 26 nM | day of statistically significant improvement in SCORAD clinical scores [2]: ≥ 9 days | IC50 (PMBC TNF): 170 nM

CS(=O)(=O)Nc1ccc(C(=O)O[C@@H](Cc2c(Cl)c[n+]([O-])cc2Cl)c2ccc(OC(F)F)c(OCC3CC3)c2)cc1OCC1CC1 [Compound A]
IC50 (human PDE4B2; [5]): 0.04 nM | reduction of SCORAD clinical scores earlier than benchmark AN-2728 ([2]; topical 0.01-1% w/v, compared to AN-2728): 4 days | day of statistically significant improvement in SCORAD clinical scores [2]: ≤ 5 days | animals with resolved lesions ([2]; topically applied at 0.01%): approximately 60% | animals with resolved lesions ([2]; topically applied at 1%): approximately 90% | concentration at 2 h ([3]; mouse, in vivo, delivered topically to the skin, 2 hours post final dose, read-out: plasma concentrations): < 5 ng/mL | plasma concentrations ([3]; topical 0.01%, 8 of the 10 animals): below quantifiable limits | oral bio-availability (Oral bio-availability): does not show any oral bio-availability | percentage of cells in the aqueous humor [1, 6]: significantly reduced | percentage of protein in the aqueous humor [1, 6]: significantly reduced | % Survival ([1]; systemic dose 0.1 mg/kg): 100% | % Efficacy, Cell % Inhibition ([1]; systemic dose 0.1 mg/kg): 95% | % Efficacy, Protein % Inhibition ([1]; systemic dose 0.1 mg/kg): 67% | psoriatic plaques (plaque psoriasis): almost completely disappeared | gritty, itchy and burning sensations (dry eye disease): significant reduction | tear production (dry eye disease): enough of an increase in tear production that the artificial tear drops are needed much less frequently | rosacea affected areas (rosacea): noticeable clearing of the affected areas | redness and eruptions on the skin ([4]; after approximately 3 weeks): significant reduction | scratching ([4]; within the first week): noticeable reduction in scratching | selectivity for PDE4 versus other PDEs (PDE4 versus other PDEs): greater than 50 fold | IC50 (PMBC TNF): 0.03 nM

COc1cccc(Nc2c(C(N)=O)cnc3c(C)cc(S(=O)(=O)c4cccc(C(=O)N(C)C)c4)cc23)c1 [GSK-256066]
IC50 (human PDE4B2; [5]): 0.007 nM | safety in the ocular inflammation model ([1]; rat, in vivo): resulted in death of the animals | % Survival ([1]; systemic dose 1.0 mg/kg): 0% | IC50 (PMBC TNF): 0.01 nM

CCOc1cc([C@@H](CS(C)(=O)=O)N2C(=O)c3cccc(NC(C)=O)c3C2=O)ccc1OC [apremilast]
animals with resolved lesions ([2]; topically applied at 1%): approximately 40% | IC50 (PMBC TNF): 110 nM

O=C(Nc1c(Cl)cncc1Cl)c1ccc(OC(F)F)c(OCC2CC2)c1 [drawing 21]
% Survival ([1]; systemic dose 0.3 mg/kg): 100% | % Efficacy, Cell % Inhibition ([1]; systemic dose 0.3 mg/kg): 97% | % Efficacy, Protein % Inhibition ([1]; systemic dose 0.3 mg/kg): 77%

CCOc1cc([C@@H](CS(C)(=O)=O)N2C(=O)c3cccc(NC(C)=O)c3C2=O)ccc1OC [drawing 22]
% Survival ([1]; systemic dose 10.0 mg/kg): 100% | % Efficacy, Cell % Inhibition ([1]; systemic dose 10.0 mg/kg): 94% | % Efficacy, Protein % Inhibition ([1]; systemic dose 10.0 mg/kg): 58%

N#Cc1ccc(Oc2ccc3c(c2)COB3O)cc1 [drawing 23]
% Survival ([1]; systemic dose 1.0 mg/kg): 100% | % Efficacy, Cell % Inhibition ([1]; systemic dose 1.0 mg/kg): 51% | % Efficacy, Protein % Inhibition ([1]; systemic dose 1.0 mg/kg): 13%

O=C(Nc1c(Cl)cncc1Cl)c1ccc(OC(F)F)c(OCC2CC2)c1 [roflumilast]
IC50 (PMBC TNF): 1.8 nM

Reference: patent publication US20190275022A1, “METHODS, COMPOSITIONS, AND COMPOUNDS FOR TREATMENT OF DERMATOLOGICAL AND OCULAR CONDITIONS” (Allergan, Inc., priority 2016, published 2019)
